In the supplement of paper PMC10307832:

Tests used:
Assay in all cases: relative viability (nuclei count vs DMSO), 5 days (fraction); higher = more cells survive
NCI-H2009 = test system: NCI-H2009
Summary of the method: (§1)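 After 5 days of treatment, lung cancer cells in 1536-well plates were fixed and stained in a single step (final 0.05% Triton X-100, 1% formaldehyde, 1 ug/ml Hoechst) and their nuclei counted on 4× images. Treatment had been applied by pin tool the day after seeding as one drug alone or as a fixed anchor-drug dose with five library-drug doses (not always all listed) in √10 steps. Relative viability is the nuclei count of treated wells divided by that of vehicle wells, and values are medians of duplicate plates.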

NCI-H2170 = test system: NCI-H2170
Summary of the method: as §1

NCI-H2228 = test system: NCI-H2228
Summary of the method: as §1

NCI-H3122 = test system: NCI-H3122
Summary of the method: as §1

NCI-H322M = test system: NCI-H322M
Summary of the method: as §1

NCI-H522 = test system: NCI-H522
Summary of the method: as §1

NCI-H727 = test system: NCI-H727
Summary of the method: as §1

PC-3 [JPC-3] = test system: PC-3 [JPC-3]
Summary of the method: as §1

SK-MES-1 = test system: SK-MES-1
Summary of the method: as §1

SW 1573 = test system: SW 1573
Summary of the method: as §1

SW 900 = test system: SW 900
Summary of the method: as §1

Cc1sc2c(c1C)C(c1ccc(Cl)cc1)=N[C@@H](CC(=O)OC(C)(C)C)c1nnc(C)n1-2 [JQ1] + CC(=O)c1c(C)c2cnc(Nc3ccc(N4CCNCC4)cn3)nc2n(C2CCCC2)c1=O [Palbociclib] (partner 0.5 µM)
relative viability (NCI-H2009; first compound 1.265 µM): 0.158 | relative viability (NCI-H2009; first compound 4 µM): 0.156 | relative viability (NCI-H2170; first compound 0.04 µM): 0.342 | relative viability (NCI-H2170; first compound 0.1265 µM): 0.353 | relative viability (NCI-H2170; first compound 0.4 µM): 0.267 | relative viability (NCI-H2170; first compound 1.265 µM): 0.178 | relative viability (NCI-H2170; first compound 4 µM): 0.185 | relative viability (NCI-H2228; first compound 0.04 µM): 0.657 | relative viability (NCI-H2228; first compound 0.1265 µM): 0.704 | relative viability (NCI-H2228; first compound 0.4 µM): 0.641 | relative viability (NCI-H2228; first compound 1.265 µM): 0.293 | relative viability (NCI-H2228; first compound 4 µM): 0.379 | relative viability (NCI-H3122; first compound 0.04 µM): 0.22 | relative viability (NCI-H3122; first compound 0.1265 µM): 0.203 | relative viability (NCI-H3122; first compound 0.4 µM): 0.191 | relative viability (NCI-H3122; first compound 1.265 µM): 0.185 | relative viability (NCI-H3122; first compound 4 µM): 0.139 | relative viability (NCI-H322M; first compound 0.04 µM): 0.477 | relative viability (NCI-H322M; first compound 0.1265 µM): 0.491 | relative viability (NCI-H322M; first compound 0.4 µM): 0.428 | relative viability (NCI-H322M; first compound 1.265 µM): 0.385 | relative viability (NCI-H322M; first compound 4 µM): 0.406 | relative viability (NCI-H522; first compound 0.04 µM): 1.04 | relative viability (NCI-H522; first compound 0.1265 µM): 0.881 | relative viability (NCI-H522; first compound 0.4 µM): 0.697 | relative viability (NCI-H522; first compound 1.265 µM): 0.478 | relative viability (NCI-H522; first compound 4 µM): 0.39 | relative viability (NCI-H727; first compound 0.04 µM): 0.63 | relative viability (NCI-H727; first compound 0.1265 µM): 0.576 | relative viability (NCI-H727; first compound 0.4 µM): 0.61 | relative viability (NCI-H727; first compound 1.265 µM): 0.538 | relative viability (NCI-H727; first compound 4 µM): 0.581 | relative viability (PC-3 [JPC-3]; first compound 0.04 µM): 0.532 | relative viability (PC-3 [JPC-3]; first compound 0.1265 µM): 0.554 | relative viability (PC-3 [JPC-3]; first compound 0.4 µM): 0.513 | relative viability (PC-3 [JPC-3]; first compound 1.265 µM): 0.575 | relative viability (PC-3 [JPC-3]; first compound 4 µM): 0.438 | relative viability (SK-MES-1; first compound 0.04 µM): 0.295 | relative viability (SK-MES-1; first compound 0.1265 µM): 0.264 | relative viability (SK-MES-1; first compound 0.4 µM): 0.234 | relative viability (SK-MES-1; first compound 1.265 µM): 0.213 | relative viability (SK-MES-1; first compound 4 µM): 0.23 | relative viability (SW 1573; first compound 0.04 µM): 0.372 | relative viability (SW 1573; first compound 0.1265 µM): 0.274 | relative viability (SW 1573; first compound 0.4 µM): 0.202 | relative viability (SW 1573; first compound 1.265 µM): 0.129 | relative viability (SW 1573; first compound 4 µM): 0.118 | relative viability (SW 900; first compound 0.04 µM): 0.506 | relative viability (SW 900; first compound 0.1265 µM): 0.465 | relative viability (SW 900; first compound 0.4 µM): 0.318 | relative viability (SW 900; first compound 1.265 µM): 0.289 | relative viability (SW 900; first compound 4 µM): 0.222
